The values below come from patent US7560473B2 (Institute of Pharmacology and Toxicology Academy of …, priority 2001, dated 2009).

Assay [1] relates to outward potassium currents of rat tail arterial SMCs. Description: Whole cell recording of outward potassium currents in rat tail arterial SMCs. In kind it is cell-based, Wistar rats. The conditions noted are these: outward potassium current amplitude before compound application, same cells; X ± SD n = 5. An excerpt: Biological activity experiments 6. The effects of novel compounds on potassium currents in isolated arterial vascular smooth muscle cells (SMCs).
The outward currents were, elicited in rat tail arterial SMCs by superfusing extracellular solution under whole cell recording configuration that the depolarizing pulse were applied from −30 mV to +100 mV with the holding potential of −40 mV in 100 ms, 10 mV clamp steps, a frequency of 5 KHz. The compounds were applied in the bath at the concentrations of 100 μmol L^−1. The amplitude of the outward potassium currents was recorded before and after compound application Values were expressed as means±SD. Statistical significance between two groups was evaluated by student's t-test for paired data * P<0.05 **P<0.01 vs control.
1. Preparation of single smooth muscle cells from rat tail arteries: Male Wistar rats (200-250 g) were killed by exsanguination. The tail artery was dissected out and transferred into cold physiological salt solution (PSS) of the following composition (in mM): NaCl 118.3, KCl 4.7, KH2PO4 1.2, MgSO4 1.2, NaHCO3 25.0, CaCl2 2.5, EDTA 0.026 and Glucose 5.0 pH7.4. With the use of a dissecting microscope, the connective tissues were removed and the artery was cut open longitudinally. Endothelium was removed carefully with a cotton swab then the artery was cut into segments with 1 mm long and placed in 4° C. the extracellular solution containing (in mM) NaCl 130, KCl 5, MgCl2 1.2, HEPES 10, Glucose 10, pH7.2 for 20 min. After this incubation, the medium was changed to enzyme solution which was composed of collagenase I (1 mg ml^−1), papain (5 mg ml^−) and bovine serum albumin (2 mg ml^−1). The tissues, were incubated in this solution for 40 min, and then rinsed three times triturated using a fire-polished Pasteur pipette until the medium turned cloudily. The cell suspension was stored in the refrigerator at 4° C.
3. Whole cell recordings: A bath dish with the smooth muscle cells (SMCs) attached and superfused with the extracellular solution at a flow rate of 2 ml min^−1 was mounted onto the stage of an inverted-phase contrast microscope. The microelectrodes having a resistance of (5-8 MΩ) were made from boroscilicate thin-wall glass capillaries, using an automatic multiple-stage, electronic puller (PP830 Japan) and then heat-polished. After establishing a high resistance seal, the patch membrane was disrupted by negative pressure. A commercial patch clamp amplifier (Axon 200B) was used to generate and apply voltages and sample current signals from the cell.

Assay [2] concerns the target T1, ATP-sensitive potassium channels in vascular smooth muscles (Rattus norvegicus, UniProt Q63563).
T1 construct: The aorta was cut into about 3-5 mm arterial rings and the vascular endothelium was scraped off; from tissue; host or cells: endothelium-removed aortic rings of male Wistar rats
The experiment in a line: Association kinetics of [^3H]P1075 binding in aortic rings. Details: species or system Wistar rat. To be noted: 37° C.; drug M: Compound 1 10^−4, Glibencamide 10^−5, ATP 10^−2, ADP 10^−3, UDP 5 × 10^−5, GTP 10^−3, Ade 10^−3; control 4.36 ± 0.45; means ± SD, n = 4~10. An excerpt: Biological activity experiment 4. Allosteric regulation of novel compounds on ATP-sensitive potassium channels in vascular smooth muscles.
To study the allosteric regulation of compound 1 on ATP-sensitive potassium channels in vascular smooth muscles, the radio-labled-ligand was used in the biological activity experiment 4.
1. The allosteric regulation of compound 1 on the binding sites for the selective KATP blocker glibenclamide in vascular smooth muscles was studied as follows: After decapitated, the male Wistar rat (340±20 g) was immediately incised open the thoracic cavity. The aorta was dissected and immersed in the 4° C. buffer containing 10 mM HEPES to wash off the blood, then carefully extirpated the fat, peripheral connective tissues and thrombus. The aorta was cut into about 3-5 mm arterial rings and the vascular endothelium was scraped off with wet tampon. The arterial rings were blotted, weighted and transferred into the tubes containing proper amount of ice colded physiological saline buffer. In the association kinetics experiment, the arterial circles in the tubes were incubated with, compound 1(10^−4M), pinacidil(10^−4M), ATP(10^−2M), ADP(10^−3M), Ade(10^−3M), […] and equal volume of buffer respectively for 10 min in 25° C. water bath, and then added [^3H]-glibenclamide(3 nM). At 5,10,15,20,30,60,90 and 120 min after incubation, 9 mL ice colded Tris buffer (50 mM) was added to terminate the reaction. After washing off the free and bound [^3H]-glibenclamide, the aorta was blotted, transferred to a scintillator, added 50 uL 30% H2O2 and reacted for 2 h at 80° C. After cooling, 2.5 mL ethyl glycol and 5 mL 1% B-BPD xylene were added in sequence, kept stationary for 8 h and measured under a scintillometer for cpm value. The resulting data were fit into a regression line with In[BEQ/(BEQ-Bt)]vs.t and the parameters for association kinetics were obtained. In the disassociation kinetics experiments, the aorta treated as described above and [^3H]-glibenclamide were incubated for 60 min at 25° C., and then 30 uM glibenclamide was added. 0,5,15,30,60,90 and 120 min later, the cpm values for the complex of [^3H]-glibenclamide and KATP were measured. The resulting data were fit into a regression line with In(B/BEQ)]vs.t and the parameters for disassociation kinetics were obtained. 2. The allosteric regulation of compound 1 on the binding sites for the selective KATP activator P1075 in vascular smooth muscles was studied with the method as described above, but some conditions should be changed as follows: the incubation temperature was 37° C. instead of 25° C.;P1075 was used instead of glibenclamide; In the association kinetics experiments, the time points for sampling were 5,10,15,20,30,45,60 and 90 min, while in the disassociation kinetics experiments, that were 1,3,5,10,20,30,45 and 60 min. Biological activity experiment 5. The effects of compound 1 on the specific binding of high selective activator [^3H]P1075 with ATP-sensitive potassium channels in vascular smooth muscles.

T1 sequence (Q63563 1-1545 isoform Q63563-2): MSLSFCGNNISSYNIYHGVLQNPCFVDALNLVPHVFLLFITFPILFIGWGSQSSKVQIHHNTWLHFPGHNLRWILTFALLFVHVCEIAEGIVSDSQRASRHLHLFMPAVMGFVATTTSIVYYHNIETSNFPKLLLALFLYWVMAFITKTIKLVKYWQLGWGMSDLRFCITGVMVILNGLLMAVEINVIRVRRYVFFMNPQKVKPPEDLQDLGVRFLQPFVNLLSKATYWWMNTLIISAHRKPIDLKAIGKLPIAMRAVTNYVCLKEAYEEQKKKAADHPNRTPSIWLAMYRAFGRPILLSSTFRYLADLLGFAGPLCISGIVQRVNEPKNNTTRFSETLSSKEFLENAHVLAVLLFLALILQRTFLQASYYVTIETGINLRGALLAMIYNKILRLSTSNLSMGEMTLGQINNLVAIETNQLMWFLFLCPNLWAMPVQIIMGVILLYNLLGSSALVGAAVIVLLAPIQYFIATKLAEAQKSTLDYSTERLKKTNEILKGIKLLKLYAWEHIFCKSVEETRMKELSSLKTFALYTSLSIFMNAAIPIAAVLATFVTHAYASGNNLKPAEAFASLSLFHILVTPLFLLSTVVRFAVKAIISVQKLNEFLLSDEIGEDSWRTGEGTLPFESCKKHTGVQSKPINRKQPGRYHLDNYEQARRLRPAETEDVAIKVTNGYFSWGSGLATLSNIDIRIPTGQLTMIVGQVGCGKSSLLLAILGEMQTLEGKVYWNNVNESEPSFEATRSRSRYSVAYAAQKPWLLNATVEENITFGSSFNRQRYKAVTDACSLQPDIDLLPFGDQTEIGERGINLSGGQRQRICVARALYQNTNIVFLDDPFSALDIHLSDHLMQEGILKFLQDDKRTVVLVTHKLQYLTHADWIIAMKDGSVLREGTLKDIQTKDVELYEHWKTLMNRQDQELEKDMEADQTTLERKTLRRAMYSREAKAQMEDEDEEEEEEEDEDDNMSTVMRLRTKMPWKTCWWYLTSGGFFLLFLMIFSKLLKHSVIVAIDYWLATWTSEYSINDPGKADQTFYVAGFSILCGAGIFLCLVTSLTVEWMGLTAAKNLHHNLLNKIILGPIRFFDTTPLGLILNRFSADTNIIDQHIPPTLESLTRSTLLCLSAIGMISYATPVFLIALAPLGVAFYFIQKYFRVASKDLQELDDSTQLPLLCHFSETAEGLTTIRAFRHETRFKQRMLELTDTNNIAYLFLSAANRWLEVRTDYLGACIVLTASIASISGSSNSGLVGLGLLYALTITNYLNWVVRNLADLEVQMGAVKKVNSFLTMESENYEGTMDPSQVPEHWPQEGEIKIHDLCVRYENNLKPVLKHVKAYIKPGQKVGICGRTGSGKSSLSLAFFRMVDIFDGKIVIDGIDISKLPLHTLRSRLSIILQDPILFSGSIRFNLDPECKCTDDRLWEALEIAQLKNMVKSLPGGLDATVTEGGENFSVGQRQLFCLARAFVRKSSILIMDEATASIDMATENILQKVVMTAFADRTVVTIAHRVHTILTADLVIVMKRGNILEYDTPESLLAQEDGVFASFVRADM
T1 sequence (Q63664 whole entry partner): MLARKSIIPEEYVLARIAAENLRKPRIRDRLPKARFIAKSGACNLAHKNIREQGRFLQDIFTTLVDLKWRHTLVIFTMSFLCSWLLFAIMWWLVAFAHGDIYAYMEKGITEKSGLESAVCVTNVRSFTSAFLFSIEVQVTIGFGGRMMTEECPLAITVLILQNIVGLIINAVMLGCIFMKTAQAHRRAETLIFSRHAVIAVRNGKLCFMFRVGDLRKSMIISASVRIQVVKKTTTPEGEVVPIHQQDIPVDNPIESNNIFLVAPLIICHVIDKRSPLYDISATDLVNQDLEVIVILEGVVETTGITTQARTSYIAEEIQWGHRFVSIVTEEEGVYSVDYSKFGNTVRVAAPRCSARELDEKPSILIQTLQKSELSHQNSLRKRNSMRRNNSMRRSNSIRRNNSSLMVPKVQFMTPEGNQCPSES

As for `CC(C)NC(C)(C)C(C)C` [compound 1, N-(1-methylethyl)-2,3-dimethyl-2-butylamine], in assay [1], the “Currents, Control (before compound application)” value came to 0.41 ± 0.08 nA. Moreover, the “Association kinetics kobs of [^3H]P1075 binding” value in assay [2] is listed as 2.44 ± 0.80 ×10^−2 nM^−1 · min^−1.
